Among the data in patent US11530229B2, “Cyano cyclobutyl compounds for CBL-B inhibition and uses thereof” (Nurix Therapeutics, Inc., priority 2019, dated 2022) are partial responders values, retold here.

This assay deals with syngeneic TC-1 cell tumor. Put plainly: Tumor growth response (partial responders), Cbl-b inhibitor plus cancer vaccine, Biological Example 11. Format: in vivo, C57BL/6 mice. Particulars: significant decrease in tumor volume relative to control mice without Cbl-b inhibitor or vaccine; 10 mice per group. Here is the method: In brief, the combination therapy was tested in C57BL/6 mice bearing a syngeneic TC-1 cell tumor. TC-1 cells were derived from primary murine lung cells, which had been transfected with human papillomavirus strain 16 (HPV16) early proteins 6 and 7 (E6 and E7) and an activated human c-Ha-ras oncogene (Lin et al., Cancer Research, 56: 21-26, 1996). Either 2.5×10^4 (first study) or 5.0×10^4 (second study) TC-1 cells (obtained from Johns Hopkins University) were injected subcutaneously into the mid flank of each mouse. Tumors were allowed to grow to 50-100 mm^3 at which time the animals were randomized and treatment was initiated (Day 0). […]
Tumor size was recorded twice a week starting on Day 0 (Day 14 post TC-1 injection) and continued through duration of dosing until humane endpoints were reached between Day 33 and Day 42 (=between Day 47 and Day 56 post TC-1 injection). The level of response was evaluated by comparing tumor growth in the test mice versus the control mice (10 mice per group). In addition, the level of immune activation was assessed by collecting tumors for analysis of tumor infiltrating lymphocytes (TILs) on Day 10 (=Day 24 post TC-1 injection) in test and control mice (6 mice per group). […]

In the case of `Cc1cc(C(=O)Nc2cccc(C3(Cc4nncn4C)COC3)c2)nc(C2CC2)n1` [Compound 60], the partial responders is reported as 0/10.
